Results reported in the supplement of paper PMC11061612.

Columns and labels:
Assay in all cases: Bliss excess, mean over the matrix (fraction); higher = more synergy
[1] = test system: P30-OHK (B-Lymphoblastic Leukemia)
In short: (§1)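 Cell lines grown in DMEM/F12 or RPMI with 10% FBS were plated in 1536-well plates and held 24 hours at 37°C, 5% CO2 before 72 hours of exposure to two-drug dose matrices, with DMSO typically at 0.2%. CellTiter-Glo 2.0 luminescence gave viability, which was converted to inhibition. Vehicle wells were set to 0 and blank wells to 1. Combination Emax is the second-highest inhibition in the matrix, and Bliss excess is the observed combination effect minus the expected EA + EB − EA·EB, where EA and EB are the single-agent effects.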

NCI-H2373 (Mesothelioma) = test system: NCI-H2373 (Mesothelioma)
In short: as §1

[2] = test system: NCI-H596 (Other Solid Carcinomas)
In short: as §1

[3] = test system: PA-TU-8988T (Pancreatic Carcinoma)
In short: as §1

[4] = test system: OVCAR-3 (Ovarian Carcinoma)
In short: as §1

[5] = test system: T84 (Colorectal Carcinoma)
In short: as §1

NCI-H226 (Mesothelioma) = test system: NCI-H226 (Mesothelioma)
In short: as §1

[6] = test system: NCI-H1876 (Small Cell Lung Carcinoma)
In short: as §1

[7] = test system: MDA-MB-415 (Breast Carcinoma)
In short: as §1

[8] = test system: TUR (Acute Myeloid Leukemia)
In short: as §1

[9] = test system: BxPC-3 (Pancreatic Carcinoma)
In short: as §1

[10] = test system: ZR-75-30 (Breast Carcinoma)
In short: as §1

[11] = test system: CL-11 (Colorectal Carcinoma)
In short: as §1

AM-38 (Glioblastoma) = test system: AM-38 (Glioblastoma)
In short: as §1

[12] = test system: BHT-101 (Thyroid Gland Carcinoma)
In short: as §1

T47D (Breast Carcinoma) = test system: T47D (Breast Carcinoma)
In short: as §1

[13] = test system: NCI-H3118 (Head and Neck Carcinoma)
In short: as §1

WM35 (Melanoma) = test system: WM35 (Melanoma)
In short: as §1

[14] = test system: P32-ISH (Burkitt's Lymphoma)
In short: as §1

[15] = test system: MONO-MAC-6 (Acute Myeloid Leukemia)
In short: as §1

SMILES	Bliss excess [1]	Bliss excess (NCI-H2373 (Mesothelioma))	Bliss excess [2]	Bliss excess [3]	Bliss excess [4]	Bliss excess [5]	Bliss excess (NCI-H226 (Mesothelioma))	Bliss excess [6]	Bliss excess [7]	Bliss excess [8]	Bliss excess [9]	Bliss excess [10]	Bliss excess [11]	Bliss excess (AM-38 (Glioblastoma))	Bliss excess [12]	Bliss excess (T47D (Breast Carcinoma))	Bliss excess [13]	Bliss excess (WM35 (Melanoma))	Bliss excess [14]	Bliss excess [15]
Cc1cc2ncnn2cc1Nc1ncc2c(n1)n(C1CCOCC1)c(=O)n2C [AZD7648] + C=CCn1c(=O)c2cnc(Nc3ccc(N4CCN(C)CC4)cc3)nc2n1-c1cccc(C(C)(C)O)n1 [AZD1775] (first compound max 10 µM, partner max 1 µM)	0.0014	-0.0322	-0.0342	-0.0563	-0.0355	-0.0288	-0.004	0.0508	-0.027	0.019	-0.0502	-0.0678	0.0119	0.0125	0.0005	-0.0146	-0.0219	-0.0364	-0.0011	-0.0188
CC(=O)c1c(C)c2cnc(Nc3ccc(N4CCNCC4)cn3)nc2n(C2CCCC2)c1=O [Palbociclib] + Cc1c2c(nn1C)CSCc1cc(n(C)n1)CSc1cc(c3ccccc3c1)OCCCc1c(C(=O)O)n(C)c3c-2c(Cl)ccc13 [AZD5991] (first compound max 10 µM, 7x7, partner max 1 µM)	0.0418	-0.0396	-0.13	-0.0361	-0.0553	-0.0578	-0.0287	0.0191	-0.113	-0.0441	-0.0528	-0.0372	0.0079	-0.0448	-0.0105	0.0375	0.0084	-0.0198	0.0299	-0.0016
CC1(C)CCC(CN2CCN(c3ccc(C(=O)NS(=O)(=O)c4ccc(NCC5CCOCC5)c([N+](=O)[O-])c4)c(Oc4cnc5[nH]ccc5c4)c3)CC2)=C(c2ccc(Cl)cc2)C1 [Venetoclax] + Cn1cnc2c(F)c(Nc3ccc(Br)cc3Cl)c(C(=O)NOCCO)cc21 [Selumetinib] (first compound max 1 µM, 7x7, partner max 3 µM)	0.036	-0.0468	-0.0764	-0.021	-0.017	-0.061	-0.0799	-0.0335	-0.0498	-0.024	0.0009	-0.034	-0.0494	-0.108	-0.0959	-0.0624	-0.0276	0.0543	0.0152	-0.0192
CN(CCO)CC[C@H](CSc1ccccc1)Nc1ccc(S(=O)(=O)NC(=O)c2ccc(N3CCC([C@@H](O)c4ccccc4-c4ccc(Cl)cc4)CC3)cc2)cc1S(=O)(=O)C(F)(F)F [AZD4320] + C[C@@H](Nc1cc(F)cc(F)c1)c1cc(C(=O)N(C)C)cc2c(=O)cc(N3CCOCC3)oc12 [AZD8186] (first compound max 1 µM, 7x7, partner max 3 µM)	0.0647	-0.0561	-0.0892	-0.005	-0.0135	-0.0287	-0.015	0.0682	0.0439	0.0019	0.0345	-0.0251	-0.0011	-0.0033	-0.0192	-0.0242	0.0019	0.047	0.0526	0.0342
Cc1c2c(nn1C)CSCc1cc(n(C)n1)CSc1cc(c3ccccc3c1)OCCCc1c(C(=O)O)n(C)c3c-2c(Cl)ccc13 [AZD5991] + CC1(C)CCC(CN2CCN(c3ccc(C(=O)NS(=O)(=O)c4ccc(NCC5CCOCC5)c([N+](=O)[O-])c4)c(Oc4cnc5[nH]ccc5c4)c3)CC2)=C(c2ccc(Cl)cc2)C1 [Venetoclax] (first compound max 1 µM, 7x7, partner max 1 µM)	0.285	-0.0391	-0.0102	-0.0031	-0.0103	-0.0369	-0.0582	0.12	0.0637	0.138	0.0411	0.0527	-0.0254	-0.0091	0.0146	-0.0042	-0.0163	0.0181	0.0054	0.136
COc1cccc(OCCCN)c1-c1cc(Nc2cnc(C#N)cn2)n[nH]1 [Prexasertib] + CN(C)CCCOc1ccc(-c2ccc3ncc4c(c3c2)n(C2CCOCC2)c(=O)n4C)cn1 [AZD0156] (first compound max 1 µM, 7x7, partner max 1 µM)	-0.045	0.0329	-0.0909	0.0179	-0.0178	0.0016	-0.0611	-0.044	-0.0099	0.013	-0.0582	-0.0512	-0.0548	0.0112	0.0275	-0.0302	-0.036	0.0756	-0.0238	0.0031
COc1cc2c(cc1OCCCCCOc1cc3c(cc1OC)C(=O)N1C=C(C)C[C@H]1C=N3)N=C[C@@H]1CC(C)=CN1C2=O [SG3199] + O=C(c1cc(Cc2n[nH]c(=O)c3ccccc23)ccc1F)N1CCN(C(=O)C2CC2)CC1 [Olaparib] (first compound max 0.001 µM, 7x7, partner max 10 µM)	-0.0422	0.0054	-0.0681	0.0053	-0.0205	-0.0279	-0.0581	-0.0267	-0.0333	0.0081	-0.0403	-0.001	-0.016	-0.0032	-0.009	-0.0449	-0.0471	-0.0129	-0.0164	-0.015
Cc1cc2ncnn2cc1Nc1ncc2c(n1)n(C1CCOCC1)c(=O)n2C [AZD7648] + C[C@@H]1COCCN1C2=NC(=NC(=C2)C3(CC3)[S@](=N)(=O)C)C4=C5C=CNC5=NC=C4 [AZD6738] (first compound max 10 µM, 7x7, partner max 10 µM)	0.0253	-0.102	-0.0318	0.003	0.0009	0.0189	0.046	0.0004	0.0354	0.0024	0.0044	-0.0224	-0.028	-0.0015	0.0197	0.0444	0.0555	0.0113	-0.0029	-0.0147
Cc1c2c(nn1C)CSCc1cc(n(C)n1)CSc1cc(c3ccccc3c1)OCCCc1c(C(=O)O)n(C)c3c-2c(Cl)ccc13 [AZD5991] + C[C@@H](Nc1cc(F)cc(F)c1)c1cc(C(=O)N(C)C)cc2c(=O)cc(N3CCOCC3)oc12 [AZD8186] (first compound max 1 µM, 7x7, partner max 3 µM)	0.0058	-0.0288	–	0.0295	0.0423	–	-0.0268	0.0156	0.0416	0.0047	-0.0059	0.0179	-0.0377	-0.0352	0.0094	-0.0323	-0.0161	0.0064	0.0273	0.0143
C[C@@H](c1ccc2nccn2c1)n1nnc2ncc(-c3cnn(C)c3)nc21 [Savolitinib] + CN(CC[C@H](CSC1=CC=CC=C1)NC2=C(C=C(C=C2)S(=O)(=O)NC(=O)C3=CC=C(C=C3)N4CCC(CC4)[C@H](C5=CC=CC=C5C6=CC=C(C=C6)Cl)O)S(=O)(=O)C(F)(F)F)CCO [AZD4320] (first compound max 1 µM, 7x7, partner max 1 µM)	-0.0183	-0.0681	-0.018	-0.0581	-0.0388	–	–	-0.0256	–	-0.0188	–	–	-0.0216	-0.0474	-0.0327	0	–	-0.051	-0.022	–
C=CCn1c(=O)c2cnc(Nc3ccc(N4CCN(C)CC4)cc3)nc2n1-c1cccc(C(C)(C)O)n1 [AZD1775] + C1CN(CCC1(C(=O)N[C@@H](CCO)C2=CC=C(C=C2)Cl)N)C3=NC=NC4=C3C=CN4 [Capivasertib] (first compound max 3 µM, partner max 3 µM)	0.0697	-0.0393	-0.0987	-0.0264	-0.025	-0.0807	-0.0662	-0.0304	0.0043	0.0434	-0.0227	-0.0501	-0.0499	-0.0247	0.0304	-0.031	-0.0253	–	0.0417	0.031
CC(=O)c1c(C)c2cnc(Nc3ccc(N4CCNCC4)cn3)nc2n(C2CCCC2)c1=O [Palbociclib] + CN(CC[C@H](CSC1=CC=CC=C1)NC2=C(C=C(C=C2)S(=O)(=O)NC(=O)C3=CC=C(C=C3)N4CCC(CC4)[C@H](C5=CC=CC=C5C6=CC=C(C=C6)Cl)O)S(=O)(=O)C(F)(F)F)CCO [AZD4320] (first compound max 10 µM, 7x7, partner max 1 µM)	0.0564	-0.0794	-0.0578	-0.0213	-0.0429	–	–	-0.0286	–	-0.0635	–	–	0.0021	-0.0234	0.0064	-0.0628	–	-0.114	0.0075	–
COc1nnc2ccc(N3CCC(c4ccc(OCCN5CCN(C)C(=O)[C@H]5C)cc4)CC3)nn12 [AZD5153] + CN(CC[C@H](CSC1=CC=CC=C1)NC2=C(C=C(C=C2)S(=O)(=O)NC(=O)C3=CC=C(C=C3)N4CCC(CC4)[C@H](C5=CC=CC=C5C6=CC=C(C=C6)Cl)O)S(=O)(=O)C(F)(F)F)CCO [AZD4320] (first compound max 1 µM, 7x7, partner max 1 µM)	-0.0062	0.0157	0.0028	0.048	0.0914	–	–	0.134	–	0.0533	–	–	0.0136	0.103	0.0367	0.055	–	0.0983	-0.0595	–
CCc1c2c(nc3ccc(O)cc13)-c1cc3c(c(=O)n1C2)COC(=O)[C@]3(O)CC [SN-38] + O=C(c1cc(Cc2n[nH]c(=O)c3ccccc23)ccc1F)N1CCN(C(=O)C2CC2)CC1 [Olaparib] (first compound max 0.3 µM, 7x7, partner max 10 µM)	0.0708	-0.0716	–	0.023	0.0986	-0.0279	-0.0493	–	0.026	0.0429	-0.005	-0.0169	0.0626	-0.0023	–	0.0623	0.106	0.0733	0.0645	0.141
